Active and inactive are the calls of the source. The rule behind the calls is not given here.

The subject of the series is CCRIS mutagenicity, Ames/micronucleus/aberration tests. The series is described as follows: CCRIS mutagenicity studies.
[1] abbreviates: Test System: AMES SALMONELLA TYPHIMURIUM, Strain/Indicator: TA100, Metabolic Activation: RAT, LIVER, S-9, AROCLOR 1254, Method: PREINCUBATION
[2] abbreviates: Test System: AMES SALMONELLA TYPHIMURIUM, Strain/Indicator: TA98, Metabolic Activation: NONE, Method: PREINCUBATION
[3] abbreviates: Test System: AMES SALMONELLA TYPHIMURIUM, Strain/Indicator: TA100, Metabolic Activation: NONE, Method: PREINCUBATION
Setting [4] is: Test System: AMES SALMONELLA TYPHIMURIUM, Strain/Indicator: TA97, Metabolic Activation: NONE, Method: PREINCUBATION

As for `Fc1cnc2ccccc2c1`, the mutagenic call reads like this: (End Point: In vitro Chromosomal aberrations, Test System: Chinese hamster lung fibroblast cells (CHL/IU), Metabolic Activation: Rat, liver, S-9) “active; positive (information derived from a figure)”; (End Point: In vitro Micronucleus, Test System: Chinese hamster lung fibroblast cells (CHL/IU), Metabolic Activation: Rat, liver, S-9) “active; positive (information derived from a figure)”; (Test System: AMES SALMONELLA TYPHIMURIUM, Strain/Indicator: TA100, Metabolic Activation: RAT LIVER S-9, PHENOBARBITAL AND 5,6-BENZOFLAVONE, Method: PREINCUBATION) “inactive; negative”; under setting [1], “inactive; negative”; (Test System: AMES SALMONELLA TYPHIMURIUM, Strain/Indicator: TA100, Metabolic Activation: RAT, LIVER, S-9, PHENOBARBITAL AND 5,6-BENZOFLAVONE, Method: PREINCUBATION) “inactive; negative”; (Test System: AMES SALMONELLA TYPHIMURIUM, Strain/Indicator: TA100, Metabolic Activation: RAT, LIVER, S-9, PHENOBARBITAL AND 5,6-NAPHTHOFLAVONE, Method: PREINCUBATION) “inactive; negative”. The mutagenic call is, setting by setting: (Test System: AMES SALMONELLA, Strain/Indicator: TA100, Metabolic Activation: RAT, LIVER, S-9, PHENOBARBITAL AND 5,6-BENZOFLAVONE, Method: PREINCUBATION) “inactive; negative”; (Test System: UDS RODENT HEPATOCYTES, Strain/Indicator: THY INCORP (NON-S-PHASE), Metabolic Activation: NONE, Method: AUTORADIOGRAPHY) “inactive; negative”.
As to `CCc1cccc(CC)c1N`, the mutagenic call was “inactive; negative” under setting [2]; “inactive; negative” (Test System: AMES SALMONELLA TYPHIMURIUM, Strain/Indicator: TA98, Metabolic Activation: NONE, Method: STANDARD PLATE); “inactive; negative” (Test System: AMES SALMONELLA TYPHIMURIUM, Strain/Indicator: TA98, Metabolic Activation: RAT, LIVER, MICROSOMES, PHENOBARBITAL, Method: PREINCUBATION); “active; positive” (Test System: AMES SALMONELLA TYPHIMURIUM, Strain/Indicator: TA98, Metabolic Activation: RAT, LIVER, S-9, AROCLOR 1254, Method: STANDARD PLATE); “inactive; negative” under setting [3]; “inactive; negative” (Test System: AMES SALMONELLA TYPHIMURIUM, Strain/Indicator: TA100, Metabolic Activation: NONE, Method: STANDARD PLATE). Besides, the mutagenic call by setting is: (Test System: AMES SALMONELLA TYPHIMURIUM, Strain/Indicator: TA100, Metabolic Activation: RAT, LIVER, MICROSOMES, PHENOBARBITAL, Method: PREINCUBATION) “inactive; negative”; (Test System: AMES SALMONELLA TYPHIMURIUM, Strain/Indicator: TA100, Metabolic Activation: RAT, LIVER, S-9, AROCLOR 1254, Method: STANDARD PLATE) “active; positive”; (Test System: Ames Salmonella typhimurium, Strain/Indicator: TA97, Metabolic Activation: None, Method: Suspension) “active; positive”; (Test System: Ames Salmonella typhimurium, Strain/Indicator: TA98, Metabolic Activation: None, Method: Suspension) “active; positive”; (Test System: Ames Salmonella typhimurium, Strain/Indicator: TA100, Metabolic Activation: None, Method: Preincubation) “inactive; negative”; (Test System: Ames Salmonella typhimurium, Strain/Indicator: TA1535, Metabolic Activation: None, Method: Suspension) “inactive; negative”. Also, the mutagenic call is, setting by setting: (Test System: Ames Salmonella typhimurium, Strain/Indicator: TA1537, Metabolic Activation: None, Method: Suspension) “inactive; negative”; (Test System: Ames Salmonella typhimurium, Strain/Indicator: TA1538, Metabolic Activation: None, Method: Suspension) “active; positive (weak response; no dose response)”.
Take `Cc1nccc2c1[nH]c1ccccc12`: the mutagenic call runs as follows: under setting [4], “active; positive”; (Test System: AMES SALMONELLA TYPHIMURIUM, Strain/Indicator: TA97, Metabolic Activation: RAT, LIVER, S-9, AROCLOR 1254, Method: PREINCUBATION) “inactive; negative”; under setting [2], “inactive; negative”; (Test System: AMES SALMONELLA TYPHIMURIUM, Strain/Indicator: TA98, Metabolic Activation: RAT, LIVER, S-9, AROCLOR 1254, Method: PREINCUBATION) “inactive; negative”; under setting [3], “inactive; negative”; under setting [1], “inactive; negative”. In addition, the mutagenic call (Test System: AMES SALMONELLA TYPHIMURIUM, Strain/Indicator: TA102, Metabolic Activation: NONE, Method: PREINCUBATION) is “inactive; negative” and the mutagenic call (Test System: AMES SALMONELLA TYPHIMURIUM, Strain/Indicator: TA102, Metabolic Activation: RAT, LIVER, S-9, AROCLOR 1254, Method: PREINCUBATION) was “inactive; negative”.
In the case of `[N-]=[N+]=NCCO`, the mutagenic call (Test System: AMES SALMONELLA TYPHIMURIUM, Strain/Indicator: TA1535, Metabolic Activation: NONE, Method: STANDARD PLATE) is “active; positive”.
Consider `Cc1cccc(N)c1`, for which the mutagenic call was “inactive; negative” (Test System: AMES SALMONELLA TYPHIMURIUM, Strain/Indicator: TA97, Metabolic Activation: HAMSTER, LIVER, S-9, AROCLOR 1254 (10 OR 30%), Method: PREINCUBATION); “inactive; negative” under setting [4]; “inactive; negative” (Test System: AMES SALMONELLA TYPHIMURIUM, Strain/Indicator: TA97, Metabolic Activation: RAT, LIVER, S-9, AROCLOR 1254 (10 OR 30%), Method: PREINCUBATION); “inactive; negative” (Test System: AMES SALMONELLA TYPHIMURIUM, Strain/Indicator: TA98, Metabolic Activation: HAMSTER, LIVER, S-9, AROCLOR 1254 (10 OR 30%), Method: PREINCUBATION); “inactive; negative” under setting [2]; “inactive; negative” (Test System: AMES SALMONELLA TYPHIMURIUM, Strain/Indicator: TA98, Metabolic Activation: RAT, LIVER, S-9, AROCLOR 1254 (10 OR 30%), Method: PREINCUBATION). Further, the mutagenic call runs as follows: (Test System: AMES SALMONELLA TYPHIMURIUM, Strain/Indicator: TA100, Metabolic Activation: HAMSTER, LIVER, S-9, AROCLOR 1254 (10 OR 30%), Method: PREINCUBATION) “inactive; negative”; under setting [3], “inactive; negative”; (Test System: AMES SALMONELLA TYPHIMURIUM, Strain/Indicator: TA100, Metabolic Activation: RAT, LIVER, S-9, AROCLOR 1254 (10 OR 30%), Method: PREINCUBATION) “inactive; negative”; (Test System: AMES SALMONELLA TYPHIMURIUM, Strain/Indicator: TA1535, Metabolic Activation: HAMSTER, LIVER, S-9, AROCLOR 1254 (10 OR 30%), Method: PREINCUBATION) “inactive; negative”; (Test System: AMES SALMONELLA TYPHIMURIUM, Strain/Indicator: TA1535, Metabolic Activation: NONE, Method: PREINCUBATION) “inactive; negative”; (Test System: AMES SALMONELLA TYPHIMURIUM, Strain/Indicator: TA1535, Metabolic Activation: RAT, LIVER, S-9, AROCLOR 1254 (10 OR 30%), Method: PREINCUBATION) “inactive; negative”. In addition, the mutagenic call by setting is: (Test System: AMES SALMONELLA TYPHIMURIUM, Strain/Indicator: TA1537, Metabolic Activation: HAMSTER, LIVER, S-9, AROCLOR 1254 (10 OR 30%), Method: PREINCUBATION) “inactive; negative”; (Test System: AMES SALMONELLA TYPHIMURIUM, Strain/Indicator: TA1537, Metabolic Activation: NONE, Method: PREINCUBATION) “inactive; negative”; (Test System: AMES SALMONELLA TYPHIMURIUM, Strain/Indicator: TA1537, Metabolic Activation: RAT, LIVER, S-9, AROCLOR 1254 (10 OR 30%), Method: PREINCUBATION) “inactive; negative”.

The values are drawn from PubChem BioAssay AID1259407 (Chemical Carcinogenesis Research Information System (CCRIS), 2018).
